ChEMBL document CHEMBL1201862, “PubChem BioAssay data set” (2004)
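Grown in 96-well plates, cells were treated for 48 hours with each compound at five concentrations. Insufficient inhibition: endpoint recorded as highest concentration tested. At the GI50, growth is halved.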 Calls of active or inactive are those of the source. Cut-off read from the data, not from the text of the source: active = GI50 up to about 1.1 µM and inactive = higher.

Key:
Assay in all cases: growth of human tumour cells (NCI), 48 h
[1] = system: SK-MEL-2
[2] = system: SF-268
[3] = system: NCI-H460
[4] = system: SK-MEL-5
[5] = system: K562
[6] = system: TK-10
[7] = system: UACC-257
[8] = system: SW-620
[9] = system: OVCAR-4
[10] = system: EKVX
[11] = system: OVCAR-5
[12] = system: Malme-3M
[13] = system: SF-539
[14] = system: A498
[15] = system: DLD-1
[16] = system: HCT-116
[17] = system: LXFL 529
[18] = system: HL-60
[19] = system: RXF 393
[20] = system: UACC-62
[21] = system: HCT-15
[22] = system: U-251
[23] = system: HCC 2998
[24] = system: MOLT-4
[25] = system: M14
[26] = system: OVCAR-8
[27] = system: HT-29
[28] = system: UO-31
[29] = system: SNB-78
[30] = system: HOP-18
[31] = system: KM-20L2
[32] = system: SK-MEL-28
[33] = system: KM12
[34] = system: HOP-92
[35] = system: NCI-H23
[36] = system: A549
[37] = system: CCRF-CEM
[38] = system: 786-0
[39] = system: NCI-H522
[40] = system: M19-MEL
[41] = system: OVCAR-3
[42] = system: HOP-62
[43] = system: ACHN
[44] = system: SF-295
[45] = system: IGROV-1
[46] = system: COLO 205
[47] = system: SN12C
[48] = system: MDA-MB-231
[49] = system: PC-3
[50] = system: DU-145
[51] = system: DMS-114
[52] = system: MDA-N
[53] = system: NCI-H226
[54] = system: CAKI-1
[55] = system: LOX IMVI
[56] = system: DMS-273
[57] = system: SR
[58] = system: NCI/ADR-RES
[59] = system: Hs-578T
[60] = system: RPMI-8226
[61] = system: SK-OV-3
[62] = system: SNB-19
[63] = system: BT-549
[64] = system: SNB-75
[65] = system: MDA-MB-435
[66] = system: T47D
[67] = system: MCF7

Measured: GI50

CCCCP1(=O)C=CC(Cl)=C(C)C1 (stereo not drawn)
inactive: [1] > 100 µM | [2] > 100 µM | [3] > 100 µM | [4] > 100 µM | [5] > 100 µM | [6] > 100 µM | [7] > 100 µM | [8] > 100 µM | [9] > 100 µM | [10] > 100 µM | [11] > 100 µM | [12] > 100 µM | [13] > 100 µM | [14] > 100 µM | [15] > 100 µM | [16] > 100 µM | [17] > 100 µM | [18] > 100 µM | [19] > 100 µM | [20] > 100 µM | [22] > 100 µM | [23] > 100 µM | [24] > 100 µM | [25] > 100 µM | [26] > 100 µM | [27] > 100 µM | [28] > 100 µM | [29] > 100 µM | [30] > 100 µM | [31] > 100 µM | [32] > 100 µM | [33] > 100 µM | [34] > 100 µM | [35] > 100 µM | [36] > 100 µM | [37] > 100 µM | [38] > 100 µM | [39] > 100 µM | [40] > 100 µM | [41] > 100 µM | [42] > 100 µM | [43] > 100 µM | [44] > 100 µM | [45] > 100 µM | [46] > 100 µM | [47] > 100 µM
> 100 µM: [21]

Cc1c2cc[n+](C)c(C)c2cc2c1[nH]c1ccccc12
> 100 µM: [21]
active: [2] 0.984 µM | [22] 0.69 µM | [59] 0.818 µM | [30] 0.586 µM | [62] 0.8 µM | [38] 0.646 µM | [47] 0.627 µM
inactive: [1] 6.73 µM | [3] 3.37 µM | [48] 2.51 µM | [49] 22.2 µM | [4] 2.44 µM | [5] 4.94 µM | [6] > 89.3 µM | [50] 10.7 µM | [7] 10.8 µM | [51] 1.57 µM | [52] 27.5 µM | [8] 8.09 µM | [9] 5.43 µM | [10] 5.46 µM | [11] 19.2 µM | [12] 2.72 µM | [13] 2.96 µM | [53] 1.69 µM | [54] 31.3 µM | [14] 70.5 µM | [15] 10.5 µM | [55] 21.7 µM | [16] 16.1 µM | [18] 16.9 µM | [19] 38.7 µM | [56] 3.63 µM | [57] > 26.6 µM | [20] 11.3 µM | [23] 7.78 µM | [24] 4.05 µM | [58] 71.1 µM | [25] 25.2 µM | [60] 6.07 µM | [26] 2.82 µM | [27] 10.6 µM | [28] 67.6 µM | [61] 12.7 µM | [29] 5.05 µM | [31] 4.99 µM | [32] 5.41 µM | [33] 2.65 µM | [34] 7.46 µM | [35] 2.05 µM | [36] 1.59 µM | [37] 6.9 µM | [63] 2.44 µM | [39] 2.86 µM | [64] 1.19 µM | [65] 16.2 µM | [40] 3.44 µM | [41] 5 µM | [42] 3.16 µM | [43] 36.3 µM | [44] 2.27 µM | [45] 7.98 µM | [46] 1.57 µM | [66] 2.14 µM | [67] 5.74 µM
